Measurements from patent publication US20120065365A1, “Stable Radiopharmaceutical Compositions and Methods for Their Preparation” (BRACCO IMAGING S.P.A., priority 2003, published 2012).
Read-outs that look alike come from different tables or passages of the source.

Legend:
[1] = assay type: physicochemical
Description: The ratio of COMPOUND A to Lutetium was 3:1 for all samples. The reaction mixtures were heated, cooled, treated with Na2EDTA.2H2O and analyzed by HPLC as described in Example 13, and then stored at room temperature for 24 hours, at which time all samples were analyzed again.

[2] = assay type: physicochemical; remark: listed apart in the source
Description: The injection volume was 20 μL.
Solutions of 1-pyrrolidine dithiocarbamic acid ammonium salt (PDTC) were prepared at concentrations of 20-, 10-, 5- and 1 mg/mL by dissolving it in a sodium acetate (NaOAc) buffer solution (0.2 M, pH 4.8). To lead-shielded 300-μL sample vials were added, individually, 50-μL aliquots of the PDTC-NaOAc butter solutions, including an aliquot of the NaOAc buffer only, to serve as a control sample. To each buffer aliquot was added 9.95 mCi ^177LuCl3 (avg) and 17.2 μg COMPOUND A (dissolved in water). The molar ratio of COMPOUND A:Lu (total Lu) for each sample was 3:1. During the reaction, in each sample, the concentration of COMPOUND A was 287-μg/mL and the activity concentration was 167-mCi/mL. The samples wore heated to 100° C. for 5 minutes, then cooled for 5 minutes in an ambient-temperature water bath. To each sample, 10 μL of 2% EDTA in water was added, and then each was analyzed by HPLC (Method 3) over 48 hours. At t=0, the radioactivity concentration was 143 mCi/mL.

[3] = assay type: physicochemical; remark: listed apart in the source
Description: The reaction vial was crimp-sealed and heated at 100° C. for 5 min. […] The sample was stored in an autosampler in which the temperature is ˜6° C. […] than room temperature, and analyzed by RP-HPLC for up to 24 hours.
L-Selenomethionine: ^177Lu-B was prepared, diluted and analyzed as described above, but 5 mg of L-Se-Met was used in place of PDTC, the heating time was 10 minutes, and the quantity of radioactivity used was 52 mCi.
L-cysteine ethyl ester, HCl: ^177Lu-B was prepared, diluted and analyzed as described above, but 5 mg of L-CEE, hydrochloride salt was used in place of PDTC, the heating time was 5 minutes and the quantity of radioactivity used was 50 mCi.
L-cysteine HCl.H2O: ^177Lu-B was prepared, diluted and analyzed as described above, but 5 mg of L-Cys HCl.H2O was used in place of PDTC, the heating time was 8 minutes and the quantity of radioactivity used was 53 mCi.

[4] = Effect of contaminant zinc on ^177Lu-B labeling with PDTC in reaction buffer (Example 20); assay type: physicochemical; details: Sample 2: COMPOUND B with ^177Lu in the presence of zinc and PDTC (COMPOUND B:^177Lu:Zinc 3:1:3)
Description: The injection volume was 10 μL.
At times, ^177LuCl3 isotope solutions are contaminated with non-radioactive metals that can interfere with radiolabeling. These metals (which may include, for example Zn, Cu, Ca and Fe among others), can compete with ^177Lu for the chelator, thus lowering reaction yields by consuming ligand so it is unavailable for chelation to ^177Lu.
A 10-mg/mL solution of 1pyrrolidine dithiocarbamic acid ammonium salt was prepared by dissolving it in sodium acetate buffer (0.2 M, pH 4.8). To a lead-shielded, 300-μL sample vial was added 86.5 μL of the NaOAc buffer solution, 13.7 mCi ^177LuCl3, 0.6525 μg zinc (6.52 μL of a 100-μg/mL zinc plasma standard solution) and 15 μg COMPOUND B (dissolved in water). This was labeled as ‘Sample 1’. To another lead-shielded, 300-μL sample vial was added 86.5 μL of the […] 1-pyrrolidine dithiocarbamic acid ammonium salt/NaOAc buffer solution, 13.8 mCi ^177LuCl3, 0.6525 μg zinc and 15 μg COMPOUND B. This was labeled as ‘Sample 2’. The concentration of COMPOUND B in each sample was 150 μg/mL and the molar ratio of COMPOUND B:^177Lu:Zinc for each sample was 3:1:3. The samples were heated to 100° C. for 5 min, and then cooled for 5 min in an ambient-temperature water bath. To each sample, 10 μL of 2% Na2EDTA.2H2O in water was added, and then each was analyzed by HPLC, using HPLC Method 5.

[5] = ^177Lu-A prepared with PDTC 1 mg/mL (0.05 mg)
[6] = ^177Lu-A prepared with PDTC 5 mg/mL (0.25 mg)
[7] = ^177Lu-A prepared with PDTC 10 mg/mL (0.5 mg)
[8] = ^177Lu-A prepared with PDTC 20 mg/mL (1 mg)

For `N.S=C(S)N1CCCC1` [PDTC, 1-pyrrolidine dithiocarbamic acid ammonium salt], the “RCP % t = 0 h” value ([1]; ^177Lu-A (4.65-5.64 mCi) prepared in presence of stabilizer 5 mg/mL, 0 h) was 100%, the “RCP % t = 24 h” value ([1]; ^177Lu-A prepared in presence of stabilizer 5 mg/mL, room temperature, 24 h) was 99.9% and the “RCP (%) 0-h” value ([2]; ^177Lu-A 143 mCi/mL at t=0, prepared with PDTC 1 mg/mL (0.05 mg)) was 100%. For the same compound, the “RCP (%) 0-h” value ([2]; ^177Lu-A 143 mCi/mL at t=0, prepared with PDTC 5 mg/mL (0.25 mg)) was 100%, the “RCP (%) 0-h” value ([2]; ^177Lu-A 143 mCi/mL at t=0, prepared with PDTC 10 mg/mL (0.5 mg)) was 100% and the “RCP (%) 0-h” value ([2]; ^177Lu-A 143 mCi/mL at t=0, prepared with PDTC 20 mg/mL (1 mg)) was 100%. The “RCP (%) 3-h” value [2, 5] was 100%, the “RCP (%) 6-h” value [2, 5] was 17.2% and the “RCP (%) 12-h” value [2, 5] was 0%. The “RCP (%) 24-h” value [2, 5] was 0%, the “RCP (%) 3-h” value [2, 6] was 100% and the “RCP (%) 6-h” value [2, 6] was 100%. The “RCP (%) 12-h” value [2, 6] was 100%, the “RCP (%) 24-h” value [2, 6] was 0% and the “RCP (%) 3-h” value [2, 7] was 100%. For the same compound, the “RCP (%) 6-h” value [2, 7] was 100%, the “RCP (%) 12-h” value [2, 7] was 100% and the “RCP (%) 24-h” value [2, 7] was 100%. For the same compound, the “RCP (%) 48-h” value [2, 7] was 100%, the “RCP (%) 3-h” value [2, 8] was 100% and the “RCP (%) 6-h” value [2, 8] was 100%. For the same compound, the “RCP (%) 12-h” value [2, 8] was 100%, the “RCP (%) 24-h” value [2, 8] was 100% and the “RCP (%) 48-h” value [2, 8] was 100%. The “RCP for up to 48 hours” value ([2]; ^177Lu-A, PDTC at 20 mg/mL) was 100%, the “(% RCP) 6-h” value ([3]; ^177Lu-B (44-53 mCi) formulated with 5 mg stabilizing compound, 6 h) was 94.7% and the “(% RCP) 24-h” value ([3]; ^177Lu-B (44-53 mCi) formulated with 5 mg stabilizing compound, 24 h) was 94.0%. The “(% RCP) 0-h” value ([3]; ^177Lu-B (44-53 mCi) formulated with 5 mg stabilizing compound, diluted to ~2 mL, ~6° C. above room temperature, 0 h) was 95.0%, the “RCP Drop over 24 hr” value ([3]; ^177Lu-B formulated with 5 mg stabilizing compound, 0 to 24 h) was 1% and the RCP [4] was 100%.
